Test system: immature dendritic cells
Assay: Cytokine production in immature dendritic cells
Type: cell-based
Conditions: MRX518 10^7/ml, LPS 100 ng/ml, compared to the negative control, FIGS. 4a-d
Procedure: A monocyte population was isolated from peripheral blood mononuclear cells (PBMCs). The monocyte cells were subsequently differentiated into immature dendritic cells. The immature dendritic cells were plated out at 200,000 cells/well and incubated with MRX518 at a final concentration of 10^7/ml, with the optional addition of LPS at a final concentration of 100 ng/ml. The negative control involved incubating the cells with RPMI media alone and positive controls incubated the cells with LPS at a final concentration of 100 ng/ml. The cytokine content of the cells was then analysed.

Substance: lipopolysaccharide [LPS]
- level of IL-6: increase
- level of TNF-α: increase

— patent publication US20230277602A1, “COMBINATION THERAPY FOR TREATING OR PREVENTING CANCER” (4D Pharma Research Limited, priority 2018, published 2023)
